The IC50 is the point on the concentration scale where inhibition reaches its midpoint.

The results in this text go back to PMC6042793 (PLoS ONE, 2018).

For test [1], the system named is sialidase activity of A/Shizuoka/1573/2009 (H1N1pdm), H275Y. Type of test: biochemical, influenza A virus (H1N1pdm). To be noted: pH 6.5.
Test [2] deals with sialidase activity of A/Shizuoka/30/2014 (H1N1pdm), H275Y. It is filed as biochemical, influenza A virus (H1N1pdm). To be noted: pH 6.5.
Test [3] addresses viral sialidase activity of A/Shizuoka/17/2016 (H1N1pdm) (Influenza A virus, UniProt A0A0X9QTS2). It is filed as biochemical. To be noted: read-out: IC50 values in the sialidase inhibition assay.
In test [4] the target is viral sialidase activity of A/Shizuoka/1573/2009 (H1N1pdm), H275Y (Influenza A virus, UniProt C3W5S3, H275Y). It is filed as biochemical. Particulars: read-out: IC50 values in the sialidase inhibition assay.
Test [5] deals with viral sialidase activity of A/Shizuoka/30/2014 (H1N1pdm), H275Y (Influenza A virus, UniProt W8DXJ8, H275Y). It is filed as biochemical.
Test [6] has as its target viral sialidase activity of A/Shizuoka/19/2016 (H1N1pdm) (Influenza A virus, UniProt A0A0X9QTS2). It is filed as biochemical. Particulars: read-out: IC50 values in the sialidase inhibition assay.

As to `CCOC(=O)C1=C[C@@H](OC(CC)CC)[C@H](NC(C)=O)[C@@H](N)C1` [OV, oseltamivir], the “BTP3 fluorescence on the membrane in the presence of NAI” value in test [1] and in test [2] was “strong fluorescence” throughout.

For the compound `CCC(CC)[C@H](NC(C)=O)[C@@H]1[C@H](O)[C@@H](C(=O)O)C[C@H]1N=C(N)N` [PV, peramivir], the “BTP3 fluorescence on the membrane in the presence of NAI” value in test [1] and in test [2] was “strong fluorescence” in each case. Moreover, the IC50 turned out to be 0.05 nM in test [3], 41 nM in test [4], 79 nM in test [5] (read-out: IC50 values in the sialidase inhibition assay) and 0.05 nM in test [6]. Besides, the “IC50 for A/Shizuoka/30/2014 relative to that for A/Shizuoka/1573/2009” value in test [5] is on record as 1.9 fold.
